One compound from patent publication US20060257481A1, “Sustained release formulation and dosing schedule of leukotriene synthesis inhibitor for human therapy” (deCODE Genetics ehf., priority 2005, published 2006) can be followed below.

A short description of one series: clinical. To be noted: human, in vivo.
The test system of series [1] is LTB4 production (ex vivo). Kind of series: Study DG-031-203 open label dose ranging: capacity for LTB4 production ex vivo. Format: in vivo, human. How it is done:
The study also collected information on the dose-related effect of DG-031 on capacity for LTB4 production (ex vivo), plasma MPO, and serum-CRP. […] The pattern observed supported a concentration dependent pharmacologic effect of DG-031 on capacity for LTB4 production measured ex vivo. The effects on LTB4 production amounted to a 30% (p=0.016) and 25% (p=0.094) reduction with the 375 mg BID and 250 mg TID doses, respectively.

Experimental for clinical: Measurements of plasma DG-031 can be carried out by methods that are standard in the art. […] The DG-031 is then measured by liquid chromatography and/or mass spectrometry and the measured concentration is compared to a standard curve.
After completion of the double-blind study reported herein an open-label randomized study was conducted in an independent cohort but with same eligibility criteria and measuring several of the same biomarkers. […] Each patient was on drug for 8 days; there was no placebo group. The primary objective of this study was to determine pharmacokinetic parameters of DG-031 in three different doses, as well as to assess the pharmacokinetic/pharmacodynamic relationship between DG-031, LTB4 and MPO.
The additional phase II study was conducted to compare a 750 mg total daily dose administered in a BID or TID dosing regimen.

For `O=C(O)[C@@H](c1ccc(OCc2ccc3ccccc3n2)cc1)C1CCCC1` [DG-031, (R)-(+)-alpha-cyclopentyl-4-(2-quinolinylmethoxy)-Benzeneacetic acid], the half-life – broadly, the time in which the quantity being followed falls by half – fell in the range of 2.5 to 3 h in the series “clinical” (Dominant half-life, humans) and 10 to 15 h in the series “clinical” (Slower half-life, fraction of the dose with slower elimination). Further, the LTB4 production in series [1] (250 mg TID, St. 203) is −25% (St. 203); in series [1] (375 mg BID, Study 203, 2 hours, p = 0.016), −30%; in series [1] (375 mg QD, Study 203, 2 hours, NS), −16%. Besides, the “Reduction of LTB4 production ex vivo” value in series [1] (250 mg TID, p=0.094) is on record as 25%; in series [1] (375 mg BID, p=0.016), 30%.
